Legend:
[1] = biological target: HCV NS3 protease genotype 3a (3A-1) (Hepatitis C virus genotype 3a, UniProt Q81258); experiment: HCV NS3 protease time-resolved fluorescence (TRF) assay, genotype 3a; format: biochemical; details: Ki 3a
In short: (§1)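 Steps: compound plus NS3/NS4A enzyme for 10 minutes; add peptide substrate to 25 nM; let cleavage proceed 6 hours at room temperature; read product fluorescence (340 nm excitation, 615 nm emission, delayed 400 μs). Enzyme levels gave signal/background 5-20.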

[2] = biological target: T1, HCV genotype 1b (BK) NS3 modified enzyme with a R155K mutation (Hepatitis C virus genotype 1b, UniProt P26663, R1181K); experiment: HCV NS3 protease time-resolved fluorescence (TRF) assay, genotype 1b R155K; format: biochemical; details: Ki 1b R155K, genotype 1b (BK) NS3 R155K; single value
T1 construct: HCV genotype 1b (BK) NS3 modified enzyme
In short: as §1

SMILES: C=C[C@@H]1C[C@]1(NC(=O)[C@@H]1C[C@@H]2CN1C(=O)[C@H](C(C)(C)C)NC(=O)O[C@@H]1C[C@H]1CCCCCc1c(nc3ccccc3c1OCC1CCCN(CC)C1)O2)C(=O)NS(=O)(=O)C1(C)CC1 (stereo partly drawn) [Example 139, (1aR,5S,8S,10R,22aR)-5-tert-butyl-N-[(1R,2S)-2-ethenyl-1-{[(1-methylcyclopropyl)sulfonyl]carbamoyl}cyclopropyl]-17-[(1-ethylpiperidin-3-yl)methoxy]-3,6-dioxo-1,1a,3,4,5,6,9,10,18,19, 20,21,22,22a-tetradeca hydro-8H-7,10-methanocyclopropa[18,19] [1,10,3,6]dioxadiazacyclo nonadecino[11,12-b]quinoline-8-carboxamide]
- Ki [1]: 0.38 nM
- Ki [2]: 0.1 nM

SMILES: C=C[C@@H]1C[C@]1(NC(=O)[C@@H]1C[C@@H]2CN1C(=O)[C@H](C(C)(C)C)NC(=O)O[C@@H]1C[C@H]1CCCCCc1c(nc3ccccc3c1OCC1CN(C)CCN1C)O2)C(=O)NS(=O)(=O)C1(C)CC1 (stereo partly drawn) [Example 140, (1ar,5S,8S,10R,22aR)-5-tert-butyl-17-[(1,4-dimethylpiperazin-2-yl)methoxy]-N-[(1R,2S)-2-ethenyl-1-{[(1-methylcyclopropyl)sulfonyl]carbamoyl}cyclopropyl]-3,6-dioxo-1,1a,3,4,5,6,9,10,18,19,20,21,22,22a-tetradecahydro-8H-7,10-methanocyclopropa[18,19][1,10,3,6] dioxadiazacyclononadecino [11,12-b]quinoline-8-carboxamide]
- Ki [1]: 3 nM
- Ki [2]: 0.26 nM

SMILES: C=C[C@@H]1C[C@]1(NC(=O)[C@@H]1C[C@@H]2CN1C(=O)[C@H](C(C)(C)C)NC(=O)O[C@@H]1C[C@H]1CCCCCc1c(nc3ccccc3c1OCC1CCN(C)C1)O2)C(=O)NS(=O)(=O)C1(C)CC1 (stereo partly drawn) [Example 141, (1aR,5S,8S,10R,22aR)-5-tert-butyl-N-[(1R,2S)-2-ethenyl-1-{[(1-methylcyclopropyl)sulfonyl]carbamoyl}cyclopropyl]-17-[(1-methylpyrrolidin-3-yl)methoxy]-3,6-dioxo-1,1a,3,4,5,6,9,10,18,19,20,21,22,22a-tetradecahydro-8H-7,10-methanocyclopropa[18,19][1,10,3,6] dioxadiazacyclononadecino [11,12-b]quinoline-8-carboxamide]
- Ki [1]: 0.33 nM
- Ki [2]: 0.066 nM

SMILES: C=C[C@@H]1C[C@]1(NC(=O)[C@@H]1C[C@@H]2CN1C(=O)[C@H](C(C)(C)C)NC(=O)O[C@@H]1C[C@H]1CCCCCc1c(nc3ccccc3c1OCC1CN(C(=O)OC(C)(C)C)C1)O2)C(=O)NS(=O)(=O)C1(C)CC1 [Example 142, tert-butyl 3-({[(1aR,5S,8S,10R, 22aR)-5-tert-butyl-8-{[(1R,2S)-2-ethenyl-1-{[(1-methylcyclopropyl)sulfonyl]carbamoyl}cyclopropyl]carbamoyl}-3,6-dioxo-1,1a,3,4,5,6,9,10,18,19,20,21,22,22a-tetradeca hydro-8H-7,10-methanocyclopropa[18,19][1,10,3,6]dioxadiazacyclononadecino [11,12-b]quinolin-17-yl]oxy}methyl) azetidine-1-carboxylate]
- Ki [1]: 15 nM
- Ki [2]: 0.7 nM

SMILES: C=C[C@@H]1C[C@]1(NC(=O)[C@@H]1C[C@@H]2CN1C(=O)[C@H](C(C)(C)C)NC(=O)O[C@@H]1C[C@H]1CCCCCc1c(nc3c(OC)cccc3c1OCCCN1CCCC1)O2)C(=O)NS(=O)(=O)C1(C)CC1 [Example 143, (1aR,5S,8S,10R,22aR)-5-tert-butyl-N-[(1R,2S)-2-ethenyl-1-{[(1-methylcyclopropyl)sulfonyl]carbamoyl}cyclopropyl]-13-methoxy-3,6-dioxo-17-[3-(pyrrolidin-1-yl)propoxy]-1,1a,3,4,5,6,9,10,18,19,20,21,22,22a-tetradecahydro-8H-7,10-methanocyclopropa[18,19][1,10,3,6]dioxadiazacyclononadecino[11,12-b]quinoline-8-carboxamide]
- Ki [1]: 0.64 nM
- Ki [2]: 0.059 nM

SMILES: C=C[C@@H]1C[C@]1(NC(=O)[C@@H]1C[C@@H]2CN1C(=O)[C@H](C(C)(C)C)NC(=O)O[C@@H]1C[C@H]1CCCCCc1c(nc3c(OC)cccc3c1OCCCn1ccnc1)O2)C(=O)NS(=O)(=O)C1(C)CC1 [Example 144, (1aR,5S,8S,10R,22aR)-5-tert-butyl-N-[(1R,2S)-2-ethenyl-1-{[(1-methylcyclopropyl)sulfonyl]carbamoyl}cyclopropyl]-17-[3-(1H-imidazol-1-yl)propoxy]-13-methoxy-3,6-dioxo-1,1a,3,4,5,6,9,10,18,19,20,21,22,22a-tetradecahydro-8H-7,10-methanocyclopropa[18,19][1,10,3,6]dioxadiazacyclononadecino[11,12-b]quinoline-8-carboxamide]
- Ki [1]: 6.2 nM
- Ki [2]: 0.61 nM

SMILES: C=C[C@@H]1C[C@]1(NC(=O)[C@@H]1C[C@@H]2CN1C(=O)[C@H](C(C)(C)C)NC(=O)O[C@@H]1C[C@H]1CCCCCc1c(nc3cc(C)ccc3c1OCCCNC1CC1)O2)C(=O)NS(=O)(=O)C1(C)CC1 [Example 145, (1aR,5S,8S,10R,22aR)-5-tert-butyl-17-[3-(cyclopropylamino)propoxy]-N-[(1R,2S)-2-ethenyl-1-{[(1-methylcyclopropyl)sulfonyl]carbamoyl}cyclopropyl]-14-methyl-3,6-dioxo-1,1a,3,4,5,6,9,10,18,19,20,21,22,22a-tetradecahydro-8H-7,10-methanocyclopropa[18,19][1,10,3,6]dioxadiazacyclononadecino[11,12-b]quinoline-8-carboxamide]
- Ki [1]: 1.2 nM
- Ki [2]: 0.079 nM

SMILES: C=C[C@@H]1C[C@]1(NC(=O)[C@@H]1C[C@@H]2CN1C(=O)[C@H](C(C)(C)C)NC(=O)O[C@@H]1C[C@H]1CCCCCc1c(nc3cc(C)ccc3c1OCCCN1CCCC1)O2)C(=O)NS(=O)(=O)C1(C)CC1 [Example 146, (1aR,5S,8S,10R,22aR)-5-tert-butyl-N-[(1R,2S)-2-ethenyl-1-{[(1-methylcyclopropyl)sulfonyl]carbamoyl}cyclopropyl]-14-methyl-3,6-dioxo-17-[3-(pyrrolidin-1-yl)propoxy]-1,1a,3,4,5,6,9,10,18, 19,20,21,22,22a-tetradecahydro-8H-7,10-methano cyclopropa[18,19][1,10,3,6] dioxadiazacyclonona decino[11,12-b]quinoline-8-carboxamide]
- Ki [1]: 0.68 nM
- Ki [2]: 0.054 nM

SMILES: C=C[C@@H]1C[C@]1(NC(=O)[C@@H]1C[C@@H]2CN1C(=O)[C@H](C(C)(C)C)NC(=O)O[C@@H]1C[C@H]1CCCCCc1c(nc3cc(C)ccc3c1OCCCN1CCOCC1)O2)C(=O)NS(=O)(=O)C1(C)CC1 [Example 147, (1aR,S,8S,10R,22aR)-5-tert-butyl-N-[(1R,2S)-2-ethenyl-1-{[(1-methylcyclopropyl)sulfonyl]carbamoyl}cyclopropyl]-14-methyl-17-[3-(morpholin-4-yl)propoxy]-3,6-dioxo-1,1a,3,4,5,6,9, 10,18,19,20,21,22,22a-tetradecahydro-8H-7,10-methanocyclopropa[18,19] [1,10,3,6]dioxadiaza cyclononadecino[11,12-b] quinoline-8-carboxamide]
- Ki [1]: 2.2 nM
- Ki [2]: 0.26 nM

SMILES: C=C[C@@H]1C[C@]1(NC(=O)[C@@H]1C[C@@H]2CN1C(=O)[C@H](C(C)(C)C)NC(=O)O[C@@H]1C[C@H]1CCCCCc1c(nc3cc(C)ccc3c1OCCCN1CC[C@H](N(C)C)C1)O2)C(=O)NS(=O)(=O)C1(C)CC1 [Example 148, (1aR,5S,8S,10R,22aR)-5-tert-butyl-17-{3-[(3S)-3-(dimethylamino)pyrrolidin-1-yl]propoxy}-N-[(1R,2S)-2-ethenyl-1-{[(1-methylcyclopropyl)ulfonyl]carbamoyl}cyclopropyl]-14-methyl-3,6-dioxo-1,1a,3,4,5,6,9,10,18,19,20,21,22,22a-tetradecahydro-8H-7,10-methanocyclopropa[18,19] [1,10,3,6]dioxadiazacyclononadecino [11,12-b]quinoline-8-carboxamide]
- Ki [1]: 0.74 nM
- Ki [2]: 0.065 nM

SMILES: C=C[C@@H]1C[C@]1(NC(=O)[C@@H]1C[C@@H]2CN1C(=O)[C@H](C(C)(C)C)NC(=O)O[C@@H]1C[C@H]1CCCCCc1c(nc3cc(C)ccc3c1OCCCNC)O2)C(=O)NS(=O)(=O)C1(C)CC1 [Example 149, (1aR,5S,8S,10R,22aR)-5-tert-butyl-N-[(1R,2S)-2-ethenyl-1-{[(1-methylcyclopropyl)sulfonyl]carbamoyl}cyclopropyl]-14-methyl-17-[3-(methylamino)propoxy]-3,6-dioxo-1,1a,3,4,5,6,9,10,18,19, 20,21,22,22a-tetradecahydro-8H-7,10-methanocyclopropa[1,19] [1,10,3,6]dioxadiazacyclonona decino[11,12-b]quinoline-8-carboxamide]
- Ki [1]: 0.74 nM
- Ki [2]: 0.041 nM

SMILES: C=C[C@@H]1C[C@]1(NC(=O)[C@@H]1C[C@@H]2CN1C(=O)[C@H](C(C)(C)C)NC(=O)O[C@@H]1C[C@H]1CCCCCc1c(nc3ccccc3c1OCCCCN1CCOCC1)O2)C(=O)NS(=O)(=O)C1(C)CC1 [Example 150, (1aR,5S,8S,10R,22aR)-5-tert-butyl-N-[(1R,2S)-2-ethenyl-1-{[(1-methylcyclopropyl)sulfonyl]carbamoyl}cyclopropyl]-17-[4-(morpholin-4-yl)butoxy]-3,6-dioxo-1,1a,3,4,5,6,9,10,18,19,20,21, 22,22a-tetradecahydro-8H-7,10-methanocyclopropa[18,19][1,10,3,6] dioxadiazacyclononadecino [11,12-b]quinoline-8-carboxamide]
- Ki [1]: 1.3 nM
- Ki [2]: 0.12 nM
